US20180318199A1, “Pharmaceutical Composition Having Anti-Aging Properties against High-Glucose” (TAIWAN LEADER BIOTECH CORP., priority 2017, published 2018)

Legend:
HO-1 and NQO-1 = test: Q-PCR of HO-1 and NQO-1 mRNA in HNDFs; assay type: cell-based, human; details: 12 h
Procedure: Therefore, it is hypothesized that ANM may upregulate anti-oxidant genes, which may suppress HG-induced ROS generation in HNDFs. In FIG. 5B and FIG. 5C, to quantify the mRNA expression levels of HO-1 and NQO-1, HNDFs are incubated with ANM (10 μM) or NAC (100 μM) in the presence or absence of HG (30 mM) for 12 h. Total RNA is extracted and subjected to Q-PCR analysis. Relative mRNA levels are normalized with β-actin mRNA. […] In contrast, as compared with the NG treatment group, […] expression levels of HO-1 and NQO-1 are observed in the HG treatment group.
As shown in the figures, to confirm a hypothesis that ANM protects HNDFs from HG-induced oxidative stress, an Nrf2 gene knockdown system using Nrf2 siRNA is developed. In FIG. 6A, HNDFs are transfected with specific siRNA against Nrf2 or control siRNA. After transfection for 24 h, cells are incubated with ANM (10 μM) in the presence of HG for 12 h. Total RNA is extracted and subjected to Q-PCR analysis to determine HO-1 and NQO-1 mRNA expression levels. […] From the data, it can be concluded that Nrf2 plays a vital role in HO-1 and NQO-1 induction even at the basal level.
Total RNA is extracted from cultured HNDFs using Trizol Reagent (Thermo Fisher Scientific). Q-PCR analysis is performed using Applied Biosystems detection instruments and software. Forward and reverse primers (10 μM), and the working solution SYBR green, is used as a PCR master mix, under the following conditions: 96° C. for 3 minutes followed by 40 cycles at 96° C. for 1 minute, 50° C. for 30 seconds and 72° C. for 90 seconds. GAPDH is used as an internal standard to control for variability in amplification because of differences in starting mRNA concentrations. The copy number of each transcript is calculated as the relative copy number normalized by GAPDH copy number.

HUVECs = test: MTT cell viability in HUVECs; assay type: cell-based, human; details: 48 h
Procedure: Please refer to FIG. 9A˜FIG. 9H, which are views showing HG-induced senescence prevented by ANM in human umbilical vein endothelial cells (HUVECs). As shown in the figures, to further delineate the protective effects of ANM on another cell system, experiments are designed to investigate the protective effect of ANM on HUVECs incubated in media containing either NG or HG alone or with ANM for 48 h. Cell viability is measured by MTT assay. […] Cell viability is determined by MTT assay. Percentage of viable cells are normalized with control cells (NG). […] In addition, in FIG. 9B, cellular senescence is determined by SA-β-gal activity assay. […] In addition, in FIG. 9C and FIG. 9D, total cell lysate is extracted and senescence-associated marker proteins including p16^INK4A, p21^CIP1 total and acetylated p53 and FoxO1 are measured by western blot analysis.
Cell viability is assessed by MTT colorimetric assay. Briefly, HNDFs (2×10^4cells/well) or HUVECs (5×10^4 cells/well) are seeded in a 24-well culture plate. […] The MTT formazan crystals are dissolved in 400 μL of DMSO and the samples are measured at 570 nm (A540) using an ELISA microplate reader (Bio-Tek Instruments, Winooski, Vt.). The percentage of cell viability (%) is calculated as (A570 of treated cells/A570 of untreated cells)×100.

HNDFs (CCD966SK) = test: MTT cytotoxicity of antcins against HNDFs; assay type: cell-based, human; details: MTT, 72 h, up to 20 μM
Procedure: Please refer to FIG. 2A˜FIG. 2D, which are views showing HG-induced senescence affected by antcins in HNDFs. As shown in the figures, prior to an investigation, cytotoxicity of antcins against HNDFs is determined. In FIG. 2A, type of antcins are subjected to screen for potential anti-aging agents for skin aging. Names and chemical structures of the antcins are shown in the left and center column, respectively. The cytotoxic effects of antcins against HNDFs are investigated. Briefly, HNDFs are incubated with increasing concentrations (1, 5, 10 and 20 μM) of antcins including ANA, ANB, ANC, ANH, ANK and ANM for 72 h and the cell viability is determined by MTT assay. The 50% inhibitory concentrations (IC50) of each compound against HNDFs are shown in right column.
Cell viability is assessed by MTT colorimetric assay. Briefly, HNDFs (2×10^4cells/well) or HUVECs (5×10^4 cells/well) are seeded in a 24-well culture plate. After treatment with HG (15 and 30 mM) in the presence or absence of samples for 24-72 h, culture media is withdrawn and incubated with MTT (1 mg/mL) in fresh medium for 2 h. The MTT formazan crystals are dissolved in 400 μL of DMSO and the samples are measured at 570 nm […] using an ELISA microplate reader (Bio-Tek Instruments, Winooski, Vt.). The percentage of cell viability (%) is calculated as (A570 of treated cells/A570 of untreated cells)×100.

wild-type N2 C. elegans = test: C. elegans oxidative stress-resistance assay (Juglone); assay type: in vivo, Caenorhabditis elegans; details: pretreatment 10 μM, 3 days; 250 μM Juglone 2.5, 3.5 and 4.5 h
Procedure: Please refer to FIG. 8A˜FIG. 8C, which are views showing the life span of wild-type C. elegans extended by ANM from oxidative stress. As shown in the figures, to further confirm the anti-oxidative property of ANM in vivo, C. elegans model is subjected. Wild-type N2 worms are pretreated with ANM for 3 days followed by exposure to oxidative stress. In FIG. 8A, to determine oxidative stress resistance, age synchronized wild-type L1 larvae are pretreated with ANM (10 and 20 μM) or DMSO (0.01%) for 3 days. Oxidative stress is induced by incubation of pre-treated worms with 250 μM Juglone for 2.5, 3.5 and 4.5 h and then scored for viability. Results are expressed as mean±S.E.M of three independent experiments. Statistical significance is ser at *P<0.05 as compared to control vs. sample treatment.
Age synchronized L1 larvae are incubated with liquid S-basal medium containing E. coli OP50 at a density of 1×10^9 cells. MI and 10 and 20 μM ANM or 0.01% DMSO (vehicle control) for 3 days. Subsequently, adult worms are subjected to oxidative stress assay. To induce oxidative stress, worms are incubated with Juglone (5-hydroxyl-1,4-naphthoquinone; Sigma), an ROS-generating agent. ANM treated and control worms are transferred to S-basal medium containing 250 μM Juglone, and incubated from 2.5, 3.5 and 4.5 h. After treatment, viable worms are scored. […] The test is performed triplicate.

C=C(CCC(C)C1CCC2C3=C(C(=O)C(O)C21C)C1(C)CCC(O)C(C)C1CC3)C(C)C(=O)O (centres unmarked) [ANM, antcin M]
HO-1 and NQO-1 mRNA levels in HG treated groups (HO-1 and NQO-1; ANM 10 μM + HG 30 mM): further increased | HO-1 and NQO-1 expression, siNrf2-transfected cells (HO-1 and NQO-1; ANM 10 μM + HG): decrease | HO-1 and NQO-1 mRNA levels, control siRNA cells (HO-1 and NQO-1; ANM 10 μM + HG, scrambled siRNA): remarkable increase | HO-1 and NQO-1 mRNA levels, compound alone (HO-1 and NQO-1; ANM 10 μM, no HG): significantly increases | number of viable HUVECs under HG (HUVECs; ANM 10 μM or RES 5 μM + HG 30 mM, HG alone 35.01%): 79.78% | cell viability of HUVECs, compound alone (HUVECs; ANM 10 μM or RES 5 μM): does not affect cell viability | cytotoxicity to HNDFs (in words) (HNDFs (CCD966SK)): did not show significant cytotoxicity | survival rate of worms exposed to Juglone-induced oxidative stress (wild-type N2 C. elegans): significantly increases
